Consider 14 molecules from publication PMC11575505 (Chemical Science, 2024).

In brackets after ≈: the same amount, converted by molar mass. Like-named read-outs stand apart in the source and are kept apart here.

Data set [1] deals with FOXO1 KTR translocation in T47D cells. Kind of data set: FOXO1 KTR translocation. The class given is cell-based. The note with it: for time to import of FOXO1-KTR into the nucleus: 3 μM, live cell imaging.
Data set [2] has as its system PKB phosphorylation (Ser473) in T47D, MCF7, PC3 and A2058 cells. Kind of data set: Washout, pPKB in-cell western. The class given is cell-based.
The subject of data set [3] is FOXO1 KTR translocation in A2058 cells. Kind of data set: FOXO1 KTR translocation. The class given is cell-based.
A further data set in a line: Kinetic solubility. The class given is physicochemical. The settings on record: for solubility at 2 h: PBS buffer, 25 °C, pH 7.4, aqueous buffer, kinetic from dmso stock.
For data set [4], the system named is PKB/Akt phosphorylation (Ser473) in T47D cells. In words: pPKB/Akt in-cell western. The class given is cell-based. The settings on record: 1 h; for prevention of PKB phosphorylation: 3 μM to 0.8 nM.
The subject of data set [5] is PKB/Akt phosphorylation (Ser473) in MCF7 cells. Kind of data set: pPKB/Akt in-cell western. Format: cell-based. The settings on record: MCF7, 1 h; for prevention of PKB phosphorylation: 3 μM to 0.8 nM.
A short description of data set [6]: Intrinsic warhead reactivity. The note with it: 1 mM compound, 600 mM βME, 37 °C. Format: physicochemical.
Data set [7] relates to PKB/Akt phosphorylation (Ser473) in SKOV3 cells. In words: pPKB/Akt in-cell western. The class given is cell-based. The note with it: read-out: pPKB/Akt IC50, 1 h of compound exposure.
A further data set has as its target Nanoluc-p110α fusion (Homo sapiens, UniProt P42336). In words: NanoBRET tracer displacement / diffusion assay in HEK293 cells. The class given is cell-based. The note with it: for increase in cellular permeability versus BYL719: diffusion coefficients.
The next data set deals with PI3Kα mutant cell lines. Kind of data set: Growth rate on intermittent exposure. Format: cell-based. The settings on record: 1 μM for 4 h daily over 4 days.
Another data set has as its system PI3Kα-mutant cell lines. Kind of data set: Growth rate inhibition, panel comparison. Format: cell-based. The note with it: 72 h incubation, GR50.
A further data set relates to p110α. Kind of data set: p110α protein levels by western blot. Format: cell-based. The note with it: 1 μM for 48 h.
In data set [8] the test system is PI3K signaling (pPKB Ser473) in serum-starved MCF7 cells. Kind of data set: Receptor ligand stimulated pPKB after washout, western blot. Format: cell-based. The note with it: for inhibition at 1 µM: Homo sapiens, MCF7, 2 h.
The subject of data set [9] is PKB phosphorylation (Ser473) in MDA-MB-453, T47D and MCF7 cells. In words: Washout, pPKB in-cell western. The class given is cell-based. The settings on record: 1 μM for 2 h then washout.

Sequence of Nanoluc-p110α fusion (P42336 whole entry, the tested form may be a part): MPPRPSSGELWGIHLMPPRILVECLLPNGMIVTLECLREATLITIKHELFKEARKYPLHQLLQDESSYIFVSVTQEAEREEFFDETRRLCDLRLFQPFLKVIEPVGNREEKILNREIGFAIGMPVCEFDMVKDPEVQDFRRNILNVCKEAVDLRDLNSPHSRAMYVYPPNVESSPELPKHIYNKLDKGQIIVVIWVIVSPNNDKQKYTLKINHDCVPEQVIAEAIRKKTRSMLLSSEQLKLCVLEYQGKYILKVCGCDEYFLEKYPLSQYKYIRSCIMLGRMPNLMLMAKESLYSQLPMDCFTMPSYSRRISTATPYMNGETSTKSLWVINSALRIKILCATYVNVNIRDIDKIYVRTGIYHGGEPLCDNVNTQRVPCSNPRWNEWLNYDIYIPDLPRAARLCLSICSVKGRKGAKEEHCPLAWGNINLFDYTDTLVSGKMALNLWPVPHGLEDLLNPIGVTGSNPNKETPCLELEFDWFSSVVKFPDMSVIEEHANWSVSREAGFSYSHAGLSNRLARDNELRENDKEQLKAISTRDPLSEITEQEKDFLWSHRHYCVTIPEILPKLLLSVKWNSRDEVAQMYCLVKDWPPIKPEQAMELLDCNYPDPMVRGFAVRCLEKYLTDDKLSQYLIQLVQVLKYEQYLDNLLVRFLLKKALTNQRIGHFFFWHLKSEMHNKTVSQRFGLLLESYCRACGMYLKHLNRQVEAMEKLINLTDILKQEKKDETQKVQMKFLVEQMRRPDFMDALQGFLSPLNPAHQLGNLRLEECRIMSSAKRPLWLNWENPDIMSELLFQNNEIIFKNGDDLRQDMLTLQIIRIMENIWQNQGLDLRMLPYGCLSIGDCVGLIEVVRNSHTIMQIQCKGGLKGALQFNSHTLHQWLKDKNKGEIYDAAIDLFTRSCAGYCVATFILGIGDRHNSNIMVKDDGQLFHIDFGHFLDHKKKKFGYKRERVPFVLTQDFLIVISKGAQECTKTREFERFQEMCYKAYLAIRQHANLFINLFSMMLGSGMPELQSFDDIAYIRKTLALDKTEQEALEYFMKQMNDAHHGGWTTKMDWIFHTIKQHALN
Sequence of Nanoluc-p110α fusion (P27986 whole entry partner, the tested form may be a part): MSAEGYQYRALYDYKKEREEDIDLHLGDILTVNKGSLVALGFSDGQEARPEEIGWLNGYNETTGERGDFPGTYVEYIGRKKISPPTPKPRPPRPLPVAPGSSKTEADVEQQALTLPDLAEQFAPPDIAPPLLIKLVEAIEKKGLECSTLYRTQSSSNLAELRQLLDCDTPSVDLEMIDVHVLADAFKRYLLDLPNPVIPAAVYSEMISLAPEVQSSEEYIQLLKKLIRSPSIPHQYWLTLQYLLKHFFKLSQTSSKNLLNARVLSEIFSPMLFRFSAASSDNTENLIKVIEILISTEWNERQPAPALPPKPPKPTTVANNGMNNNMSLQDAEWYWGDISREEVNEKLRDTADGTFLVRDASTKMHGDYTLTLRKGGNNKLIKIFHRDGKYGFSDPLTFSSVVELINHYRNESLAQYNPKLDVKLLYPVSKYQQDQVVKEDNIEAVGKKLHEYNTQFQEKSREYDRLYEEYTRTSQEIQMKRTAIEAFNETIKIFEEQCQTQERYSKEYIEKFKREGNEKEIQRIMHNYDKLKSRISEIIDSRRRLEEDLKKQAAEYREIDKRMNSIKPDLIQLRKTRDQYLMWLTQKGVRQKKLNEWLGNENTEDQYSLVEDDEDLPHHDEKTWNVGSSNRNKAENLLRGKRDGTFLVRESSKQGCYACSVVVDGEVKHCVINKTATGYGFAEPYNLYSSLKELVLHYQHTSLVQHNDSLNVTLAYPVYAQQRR

For the molecule `Cc1nc(NC(=O)N2CCC[C@H]2C(N)=O)sc1-c1ccnc(C(C)(C)C(F)(F)F)c1` [BYL719, reference compound], the “time to import of FOXO1-KTR into the nucleus” value in data set [1] is < 20 min. Besides, the “FOXO1-KTR nuclear import IC90” value in data set [1] (1 h incubation) is reported as “not able to induce full nuclear translocation”. The “reactivation of PI3K/PKB signaling after removal of inhibitor” value in data set [2] (all cell lines, 2 h incubation then washout) is reported as “reactivated PI3K/PBK signaling within the first hour”. Also, the “FOXO1-KTR nuclear translocation IC90” value in [3] (A2058, 1 h incubation) is reported as “completely ineffective”. The solubility at 2 h in the data set “Kinetic solubility” was 49 µM (≈ 21.6 µg/mL).

Consider `CC[C@H](Nc1ncnc2[nH]cnc12)c1nc2cccc(F)c2c(=O)n1-c1ccccc1` [CAL101], for which the “prevention of PKB phosphorylation” value in data set [4] and in [5] was “did not prevent PKB phosphorylation” throughout.

For `CC(C)=CC(=O)CCC(=O)N1CCN(Cc2cc3nc(-c4cccc5[nH]ncc45)nc(N4CCOCC4)c3s2)CC1` [CNX1351, reference compound], the “k chem × 10^4” value in [6] amounted to 2.2 M^−1 s^−1. In data set [7], the IC50 was 172 nM. The molecule also showed a Solubility in “Kinetic solubility” (kinetic solubility at pH 7.4 in PBS) of 10 µM (≈ 5.74 µg/mL).

In the case of `C=CC(=O)N1CCC(C(=O)NCC(=O)N2CCN(c3nc(-c4cnc(N)nc4C(F)F)nc(N4CCOCC4)n3)CC2)CC1` [Compound 1], in [7], the IC50 stood at 86 nM. Besides, the concentration in solution in the data set “Kinetic solubility” (solubility at 2 h) came to 333 µM (≈ 205 µg/mL).

`C=CC(=O)N1CCC(C(=O)N(C)CC(=O)N2CCN(c3nc(-c4cnc(N)nc4C(F)F)nc(N4CCOCC4)n3)CC2)CC1` [Compound 2]: in data set [7], the IC50 is 82 nM. The same molecule gave a solubility at 2 h in the data set “Kinetic solubility” of 383 µM (≈ 241 µg/mL).

As for `C=CC(=O)N1CCC(CN(C)CC(=O)N2CCN(c3nc(-c4cnc(N)nc4C(F)F)nc(N4CCOCC4)n3)CC2)CC1` [Compound 3], the IC50 in data set [7] stood at 38 nM. The molecule further yielded a solubility at 2 h in the data set “Kinetic solubility” of 363 µM (≈ 223 µg/mL).

Turning to `C=CC(=O)N1CCC(C(=O)NCCN2CCN(c3nc(-c4cnc(N)nc4C(F)F)nc(N4CCOCC4)n3)CC2)CC1` [Compound 4], the “k chem × 10^4” value in data set [6] is recorded as ~5.2 ^e M^−1 s^−1. For the same molecule, the IC50 in data set [7] amounted to 69 nM.

In the case of `C=CC(=O)N1CCC(CCCC(=O)N2CCN(c3nc(-c4cnc(N)nc4C(F)F)nc(N4CCOCC4)n3)CC2)CC1` [Compound 7], in data set [1] (3 μM then washout), the “persistence of nuclear FOXO1-KTR localization after washout” value is given as > 10 h. The “time to import of FOXO1-KTR into the nucleus” value in data set [1] is recorded as < 20 min. The concentration for an effect of 90% (IC90) stood at 50 nM in data set [1] (Homo sapiens, 1 h, read-out: FOXO1-KTR nuclear import IC90) and 1660 nM in data set [3] (Homo sapiens, A2058, 1 h, read-out: FOXO1-KTR nuclear translocation IC90). Besides, the “PI3K/PKB signaling after washout” value in data set [2] (PTEN-deficient cell lines) is recorded as ~50%. Further, in [2] (T47D and MCF7 cells, 3 μM for 2 h then washout), the “duration of pathway inhibition after washout” value is listed as > 18 h. The “time to nuclear FOXO1 KTR localization” value in data set [3] (A2058, 3 μM, live cell imaging) is > 40 min. Besides, the IC50 in [7] is 22 nM. Besides, the results for the “better cellular potency (lower pPKB IC50) as compared to BYL719” value in data set [4] and in data set [5] were 5 fold and 8 fold, respectively.

As to `C=CC(=O)N1CCC(COCC(=O)N2CCN(c3nc(-c4cnc(N)nc4C(F)F)nc(N4CCOCC4)n3)CC2)CC1` [Compound 8], in [7], the IC50 was found to be 19 nM. Also, on Nanoluc-p110α fusion, the “increase in cellular permeability versus BYL719” value (shortened to “increase”) is 2- to 3 fold.

Take `C=CC(=O)N1CCC(COCC(=O)N2CCN(c3nc(-c4cnc(N)nc4C(F)F)nc(N4CCOC[C@@H]4C)n3)CC2)CC1` [Compound 9]: the growth rate with PI3Kα mutant cell lines is listed as ≤ 0.5. The “more potent growth inhibition than reference compounds BYL719 and GDC-0077” value with PI3Kα-mutant cell lines is recorded as 2- to 273 fold. In addition, in the data set on PI3Kα-mutant cell lines, the “more potent than the reversible analogue 9r” value is 6- to 70 fold. The “depletion of p110α” value with p110α (HCC1954 and MDA-MB-453 cells) is “prominent, indistinguishable depletion of p110α”; in the data set with p110α (MCF7 and T47D cells), “insignificant”. Further, the inhibition at 1 µM in data set [8] (read-out: inhibition of PI3K signaling in response to CXCL12) was 91%; in data set [8] (read-out: inhibition of PI3K signaling in response to EGF), 98%. The IC50 in data set [7] came to 19 nM. In the data set “Kinetic solubility”, this molecule had a solubility at 2 h of 357 µM (≈ 220 µg/mL). Besides, the “increase” value on Nanoluc-p110α fusion is 2- to 3 fold. Also, the “faster permeation into cells as compared to 7” value at Nanoluc-p110α fusion (human, 4 h) is reported as “ca. 2.8 ×”. For the same molecule, the “duration of loss of detectable pPKB after washout” value in [9] is listed as “up to 72 h”.

Take `CCC(=O)N1CCC(COCC(=O)N2CCN(c3nc(-c4cnc(N)nc4C(F)F)nc(N4CCOC[C@@H]4C)n3)CC2)CC1` [Compound 9r]: the “time to equilibrium of BRET signal decay” value at Nanoluc-p110α fusion (HEK293, 200 nM Tracer K-3) is given as “ca. 20 min”. At Nanoluc-p110α fusion, the “increase” value is reported as 2- to 3 fold.

For the molecule `C[C@H](Nc1ccc2c(c1)OCCn1cc(N3C(=O)OC[C@H]3C(F)F)nc1-2)C(N)=O` [GDC-0077, reference compound], the “depletion of p110α” value in the data set with p110α (HCC1954 and MDA-MB-453 cells) is “prominent, indistinguishable depletion of p110α”; with p110α (MCF7 and T47D cells) it was “insignificant”. In “Kinetic solubility”, the solubility at 2 h came to 357 µM (≈ 145 µg/mL).

In “Kinetic solubility”, `C=CC(=O)N1CCC[C@@H](n2nc(-c3ccc(Oc4ccccc4)cc3)c3c(N)ncnc32)C1` [Ibrutinib, reference compound] returned a solubility at 2 h of 10 µM (≈ 4.41 µg/mL).

As for `Cc1cc(C(C)Nc2ccccc2)c2nc(N3CCOCC3)cc(=O)n2c1` (centres unmarked) [TGX221], in data set [8] (MCF7, TGX221 1 μM after 9-wo), the “suppression of the remaining PI3K signaling, CXCL12” value came out at 6%; the “suppression of the remaining PI3K signaling, EGF” value was 2%; the “suppression of the remaining PI3K signaling, insulin” value was found to be 12%. Besides, the “prevention of PKB phosphorylation” value in data set [4] was “did not prevent PKB phosphorylation”. Also, the “prevention of PKB phosphorylation” value in data set [5] is on record as “did not prevent PKB phosphorylation”.
